Reference: patent US5646310A, “N-(2-cyanoethyl)-6-fluoroalkyl-2h-1-benzopyran derivatives” (Chugai Seiyaku Kabushiki Kaisha, priority 1993, dated 1997)
pEC50, pIC50: −log10 of the molar value.

These compounds were tested on thoracic aorta (assay: Extracted rat aorta, relaxation of KCl-induced constriction (Test Example 1)). Conditions: relaxation of continuous constriction caused by 30 mM potassium chloride, rat aorta ring; read-out: 50% inhibitory concentration (IC50).
Type: cell-based, male Sprague Dawley rat
Experimental: (§1) A thoracic aorta was extracted from male Sprague Dawley rat (450-600 g) to prepare a ring-formed sample having a width of 2 mm. The resulting sample was suspended at a tension of 2 g in an organ bath containing Krebs-Henseleit solution, and a gas composed of 95% oxygen and 5% carbon dioxide was passed therethrough. A constriction reaction of the sample was recorded isometrically by a FD pick-up. After equilibration for 1 to 1.5 hour, 30 mM potassium chloride was added in order to constrict the tissue, and an activity of the test compound for relaxing the continuous constriction caused by potassium chloride was evaluated by determining a 50% inhibitory concentration (IC50). As comparative compounds, N-(2-cyanoethyl)-2,2-dimethyl-6-nitro-2H-1-benzopyran-4-carbamide (Compound A) disclosed in WO 92/02514 and 6-trifluoromethyl--N-methyl-2,2-dimethyl-2H-1-benzopyran-4-carbothioamide (Compound B) disclosed in WO 92/14439 were used.
With CNC(=S)C1=CC(C)(C)Oc2ccc(C(F)(F)F)cc21 [Compound B, 6-trifluoromethyl--N-methyl-2,2-dimethyl-2H-1-benzopyran-4-carbothioamide, reference compound] the pIC50 was 8.72. CC1(C)C=C(C(=O)NCCC#N)c2cc([N+](=O)[O-])ccc2O1 [Compound A, N-(2-cyanoethyl)-2,2-dimethyl-6-nitro-2H-1-benzopyran-4-carbamide, reference compound] showed a pIC50 of 8.55. CC1(C)C=C(C(=S)NCCC#N)c2cc(C(F)(F)C(F)(F)F)ccc2O1 [Compound 2, N-(2-cyanoethyl)-6-pentafluoroethyl-2,2-dimethyl-2H-1-benzopyran-4-carbothioamide] showed a pIC50 of 9.06. Compound CC1(C)C=C(C(=O)NCCC#N)c2cc(C(F)(F)C(F)(F)F)ccc2O1 [Compound 1, N-(2-cyanoethyl)-6-pentafluoroethyl-2,2-dimethyl-2H-1-benzopyran-4-carbamide] has a pIC50 of 9.62.

The compounds below were run on thoracic aorta (assay: Extracted rat aorta, relaxation of KCl-induced constriction relative to maximum relaxation (Test Example 2)). Conditions: relaxation of continuous constriction caused by 30 mM potassium chloride, rat aorta ring, 2 ml organ bath; read-out: 50% inhibitory concentration (EC50) relative to the maximum relaxation effect of the compound.
Type: cell-based, male Sprague Dawley rat
Experimental: as §1, with “in a 2 ml” for “in an”, “concentration (EC50) of the compound relative to the maximum relaxation effect of the compound.” for “concentration (IC50). As comparative compounds, N-(2-cyanoethyl)-2,2-dimethyl-6-nitro-2H-1-benzopyran-4-carbamide (Compound A) disclosed in WO 92/02514 and 6-trifluoromethyl--N-methyl-2,2-dimethyl-2H-1-benzopyran-4-carbothioamide (Compound B) disclosed in WO 92/14439 were used.”
In the case of CC1(C)Oc2ccc(C#N)cc2C(N2CCCC2=O)C1O (stereo not shown) [Cromakalim, cromakalim, reference compound], the pEC50 was 6.77. N#CCCNC(=S)C1=CC(CF)(CF)Oc2ccc(C(F)(F)F)cc21 [Compound 3, N-(2-cyanoethyl)-2,2-bisfluoromethyl-6-tri-fluoromethyl-2H-1-benzopyran-4-carbothioamide] was tested, and the pEC50 was 10.68. For N#CCCNC(=S)C1=CC(CF)(CF)Oc2ccc(C(F)(F)C(F)(F)F)cc21 [Compound 4, N-(2-cyanoethyl)-6-pentafluoroethyl-2,2-bis-fluoromethyl-2H-1-benzopyran-4-carbothioamide], the pEC50 was 10.72.
